Laboratory results from PMC6457190, “Tridecaptin-inspired antimicrobial peptides with activity against multidrug-resistant Gram-negative bacteria” (MedChemComm, 2019).
Where a SMILES comes first, the peptide text is derived from it. [ ]: non-standard residue; d: D form. The star is where a group is joined. dOrn = NCCC[C@@H](N)C(=O)O; Octanoyl = CCCCCCCC(=O)*; Orn = NCCC[C@H](N)C(=O)O

Key:
A. baumannii = assay type: cell-based, Acinetobacter baumannii; details: 18 h
Description: (§1) IV. Antimicrobial testing
(§2) All minimum inhibitory concentrations (MICs) were determined according to Clinical and Standards Laboratory Institute (CLSI) guidelines. Briefly, peptides were dissolved in Muller-Hinton Broth (MHB) and serial dilutions made across a 96 well plate. Each well was inoculated with a suspension of the required bacterial strain to reach a final inoculum of 5 x 10^5 colony forming units per mL. The MIC was taken as the lowest concentration with no visible growth after 18 hours.
(§3) V. Additional information on multidrug resistant strains
(§4) Organism Resistant Susceptible
Acinetobacter baumannii Cefotaxime Imipenem
Isolated from sewage contaminated Tetracycline Colistin water (Tripoli, Lebanon). Ofloxacin Tobramycin
(§5) Acinetobacter baumannii ACM 11 Ceftazimide
(§6) Acinetobacter baumannii ACM 29 Ceftazimide
(§7) Isolated from peritoneum of 3-year- Imipenem

A. baumannii ACM 11 = assay type: cell-based, Acinetobacter baumannii; details: ACM 11, 18 h
Description: as §1, §2, §3, §4, §5

A. baumannii ACM 29 = assay type: cell-based, Acinetobacter baumannii; details: ACM 29, 18 h
Description: as §1, §2
V. Additional information on multidrug resistant strains […]
Organism Resistant Susceptible […]
as §6, §7

E. cloacae = assay type: cell-based, Enterobacter cloacae; details: 18 h
Description: as §1, §2

K. pneumoniae IMP 170 = assay type: cell-based, Klebsiella pneumoniae; details: IMP 170, 18 h
Description: as §1, §2

K. pneumoniae IMP 177 = assay type: cell-based, Klebsiella pneumoniae; details: IMP 177, 18 h
Description: as §1, §2

K. pneumoniae IMP 204 = assay type: cell-based, Klebsiella pneumoniae; details: IMP 204, 18 h
Description: as §1, §2

K. pneumoniae IMP 216 = assay type: cell-based, Klebsiella pneumoniae; details: IMP 216, 18 h
Description: as §1, §2

K. pneumoniae IMP 485 = assay type: cell-based, Klebsiella pneumoniae; details: IMP 485, 18 h
Description: as §1, §2

K. pneumoniae = assay type: cell-based, Klebsiella pneumoniae; details: 18 h
Description: as §1, §2

P. pseudoalcaligenes = assay type: cell-based, Pseudomonas pseudoalcaligenes; details: 18 h
Description: as §1, §2

Equine erythrocytes = assay type: cell-based, horse; details: red cells of equine, 100 μg mL^–1
Description: Having assessed the antimicrobial activity of peptides 1–8 we next proceeded to assess their haemolytic activities (Table 2). Haemolytic activity was tested at 100 μg mL^–1, as the concentration required for haemolysis should be higher than antimicrobial MICs. Equine erythrocytes were exposed to peptides 1–8 and incubated for 30 min at 37 °C (Table 2). […] The low haemolytic activity observed for Oct-TriA2 (2,8-D-Lys, 7-Lys) (8) is consistent with its poor antimicrobial activity. […]
VI. Haemolytic activity assays
A 96-well plate was first prepared to contain phosphate-buffered saline (PBS) solutions (100 μL) of tridecaptin analogues 1 – 8 (200 μg/mL) (experiments run in triplicate). 0.1 % Triton X-100 (100 μL) was used as a positive control, while PBS (100 μL) was used as a blank. After the plate had been prepared, defibrinated horse blood (0.5 mL, VWR International) was diluted with phosphate-buffered saline (9.5 mL) and gently shaken. The resulting mixture was centrifuged (5600 rpm, 5 min) using a Thermo Scientific Heraeus Labofuge 200 centrifuge and the supernatant carefully removed. This process was repeated three more times to remove any free hemoglobin. The resulting erythrocyte pellet was gently resuspended in 9.5 mL of PBS. Aliquots of the resulting mixture (100 μL) were added to the appropriate wells on the 96-well plate using a multichannel pipette and the plate incubated at 37 °C for 30 min. The samples were gently mixed by pipetting, and 20 μL of each was added to 200 μL of PBS. Once again, the samples were gently mixed. The diluted samples were then centrifuged (7000 rpm, 5 min) using a SciSpin MINI Microfuge. Supernatant (150 μL) from each sample was added to a new 96-well plate. The absorbance of each sample was individually measured at 415 nm using a Denovix DS-11 FX+ Spectrophotometer. Percent hemolysis of the peptides was calculated relative to Triton X- 100, while the PBS negative control was used as a blank.

[1] = tested on: K. pneumoniae and E. cloacae strains; assay type: cell-based, Klebsiella pneumoniae, Enterobacter cloacae; details: 18 h
Description: The first amino acid substitution we explored was replacement of D-allo-Ile12 with D-Val, which occurs in natural TriA2 variants. Fmoc-D-Val is ∼30 times less expensive than Fmoc-D-allo-Ile (according to Fluorochem pricing). […] The minimum inhibitory concentrations (MICs) of Oct-TriA1 against K. pneumoniae and E. cloacae strains were typically 6.25 μg mL^–1 but […] against carbapenemase-producing A. baumannii strains (25 μg mL^–1).
(§8) MilliQ water and solvent B = 0.1 % TFA in ACN. A gradient method was employed, starting from 20 % B and 80 % A for 2 min, ramping up to 95 % B over 18 min, ramping down to 20 % B over 0.1 min before staying at 20 % B for 3.9 min. High resolution mass spectrometry (HRMS) spectra of all peptides were recorded by Analytical Services and Environmental Projects (ASEP) at Queen’s University Belfast on a Waters LCT Premier ToF mass spectrometer using the electrospray ionisation (ESI) technique.
as §1
as §2, with “The MIC was taken as the lowest concentration with no visible growth after 18 hours.” left out

K. pneumoniae strains = experiment: MIC; assay type: cell-based, Klebsiella pneumoniae; details: against the K. pneumoniae strains
Description: (§9) We next proceeded to replace the D-Dab and L-Dab residues, found at positions 2 and 8, and 7 respectively. […] It was previously shown that D-Dab8 is essential for antimicrobial activity,[18] and an experimentally derived model of Oct-TriA1 bound to its cellular receptor, the peptidoglycan intermediate lipid II, supports this observation.[12] Therefore we first prepared peptides in which only the amino acids at positions 2 and 7 were substituted with Lys or Orn (D/L configuration retained). […] Finally, the Lys/Orn substitutions at the 2, 7 and 8 positions were also incorporated into TriA2 analogues, yielding Oct-TriA2 (2,8-D-Orn, 7-Orn) (7) and Oct-TriA2 (2,8-D-Lys, 7-Lys) (8).
as §8, §1
(§10) All minimum inhibitory concentrations (MICs) were determined according to Clinical and Standards Laboratory Institute (CLSI) guidelines. […]

A. baumannii strains = experiment: MIC; assay type: cell-based, Acinetobacter baumannii; details: against the A. baumannii strains
Description: as §9, §8, §1, §10

Peptide MIC (A. baumannii) | Peptide MIC (A. baumannii ACM 11) | Peptide MIC (A. baumannii ACM 29) | Peptide MIC (E. cloacae) | Peptide MIC (K. pneumoniae IMP 170) | Peptide MIC (K. pneumoniae IMP 177) | Peptide MIC (K. pneumoniae IMP 204) | Peptide MIC (K. pneumoniae IMP 216) | Peptide MIC (K. pneumoniae IMP 485) | Peptide MIC (K. pneumoniae) | Peptide MIC (P. pseudoalcaligenes) | minimum inhibitory concentrations (MICs), typical value [1] | Compound | % haemolysis (Equine erythrocytes) | antimicrobial activity relative to Oct-TriA1 (K. pneumoniae strains) | antimicrobial activity relative to Oct-TriA1 (A. baumannii strains)
12.5 μg mL^–1 | 25 μg mL^–1 | 25 μg mL^–1 | 3.13 μg mL^–1 | 6.25 μg mL^–1 | 6.25 μg mL^–1 | 12.5 μg mL^–1 | 6.25 μg mL^–1 | 6.25 μg mL^–1 | 6.25 μg mL^–1 | 50 μg mL^–1 | ~6.25 μg mL^–1 | CCCCCCCC(=O)N[C@@H](C(=O)N[C@H](CCN)C(=O)NCC(=O)N[C@H](CO)C(=O)N[C@H](Cc1c[nH]c2ccccc12)C(=O)N[C@@H](CO)C(=O)N[C@@H](CCN)C(=O)N[C@H](CCN)C(=O)N[C@@H](Cc1ccccc1)C(=O)N[C@@H](CCC(=O)O)C(=O)N[C@H](C(=O)N[C@@H](C(=O)N[C@@H](C)C(=O)O)[C@@H](C)CC)C(C)C)C(C)C [Peptide 1, Oct-TriA1, reference compound] | 89.6% | – | –
25 μg mL^–1 | 25 μg mL^–1 | 50 μg mL^–1 | 12.5 μg mL^–1 | 25 μg mL^–1 | 12.5 μg mL^–1 | 12.5 μg mL^–1 | 12.5 μg mL^–1 | 12.5 μg mL^–1 | 50 μg mL^–1 | 6.25 μg mL^–1 | – | CCCCCCCC(=O)N[C@@H](C(=O)N[C@H](CCCN)C(=O)NCC(=O)N[C@H](CO)C(=O)N[C@H](Cc1c[nH]c2ccccc12)C(=O)N[C@@H](CO)C(=O)N[C@@H](CCCN)C(=O)N[C@H](CCCN)C(=O)N[C@@H](Cc1ccccc1)C(=O)N[C@@H](CCC(=O)O)C(=O)N[C@H](C(=O)N[C@@H](C(=O)N[C@@H](C)C(=O)O)C(C)C)C(C)C)C(C)C [Peptide 7, Oct-TriA2 (2,8-D-Orn, 7-Orn)] (Octanoyl-[dV][dOrn]G[dS][dW]S[Orn][dOrn]FEV[dV]A-OH) | 39.8% | two- to four-fold less active | comparable activity
